Measurements from PubChem BioAssay (NCI).
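Cultured in 96-well plates, cells were exposed to test compound for 48 hours across five concentrations. GI50 marks 50% less growth. Definition used: TGI = concentration required for complete inhibition of growth.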

What was measured:
Test in all cases: DTP human tumour cell line panel, 48 h
[1] = tested on: M14 melanoma
[2] = tested on: NCI-H522 lung
[3] = tested on: NCI-H23 lung
[4] = tested on: MALME-3M melanoma
[5] = tested on: KM12 colon
[6] = tested on: LOX IMVI melanoma
[7] = tested on: NCI-H460 lung
[8] = tested on: RXF 393 renal
[9] = tested on: HOP-18 NSCLC
[10] = tested on: HCC-2998 colon
[11] = tested on: SR leukemia
[12] = tested on: SK-MEL-2 melanoma
[13] = tested on: ACHN renal
[14] = tested on: KM20L2 colon
[15] = tested on: SK-MEL-28 melanoma
[16] = tested on: SW-620 colon
[17] = tested on: DLD-1 colon
[18] = tested on: UACC-62 melanoma
[19] = tested on: LXFL 529 NSCLC
[20] = tested on: HCT-116 colon
[21] = tested on: U251 CNS
[22] = tested on: HT29 colon
[23] = tested on: HL-60(TB) leukemia
[24] = tested on: SF-539 CNS
[25] = tested on: MOLT-4 leukemia
[26] = tested on: OVCAR-4 ovarian
[27] = tested on: OVCAR-8 ovarian
[28] = tested on: COLO 205 colon
[29] = tested on: HOP-62 NSCLC
[30] = tested on: NCI-H226 lung
[31] = tested on: CAKI-1 renal
[32] = tested on: UACC-257 melanoma
[33] = tested on: TK-10 renal
[34] = tested on: EKVX NSCLC
[35] = tested on: CCRF-CEM leukemia
[36] = tested on: RPMI-8226 leukemia
[37] = tested on: OVCAR-5 ovarian
[38] = tested on: UO-31 renal
[39] = tested on: SNB-75 CNS
[40] = tested on: K-562 leukemia
[41] = tested on: SK-OV-3 ovarian
[42] = tested on: IGROV1 ovarian
[43] = tested on: SN12C renal
[44] = tested on: DMS 273 small cell lung
[45] = tested on: 786-0 renal
[46] = tested on: A549 NSCLC
[47] = tested on: SNB-19 CNS
[48] = tested on: XF 498 CNS
[49] = tested on: SF-295 CNS
[50] = tested on: M19-MEL melanoma
[51] = tested on: SF-268 CNS
[52] = tested on: HCT-15 colon
[53] = tested on: DMS 114 small cell lung
[54] = tested on: HOP-92 NSCLC
[55] = tested on: SNB-78 CNS
[56] = tested on: OVCAR-3 ovarian
[57] = tested on: A498 renal
[58] = tested on: SK-MEL-5 melanoma

O=C1CC[C@H](NC(=O)Cc2ccccc2)C(=O)N1
TGI [1]: > 1250 µM
TGI [2]: > 1250 µM
TGI [3]: > 1250 µM
TGI [4]: > 1250 µM
TGI [5]: > 1250 µM
TGI [6]: > 1250 µM
TGI [7]: > 1250 µM
TGI [8]: > 1250 µM
TGI [9]: > 1250 µM
TGI [10]: > 1250 µM
TGI [11]: > 1250 µM
TGI [12]: > 1250 µM
TGI [13]: > 1250 µM
TGI [14]: > 1250 µM
TGI [15]: > 1250 µM
TGI [16]: > 1250 µM
TGI [17]: > 1250 µM
TGI [18]: > 1250 µM
TGI [19]: > 1250 µM
TGI [20]: > 1250 µM
TGI [21]: > 1250 µM
TGI [22]: > 1250 µM
TGI [23]: > 1250 µM
TGI [24]: > 1250 µM
TGI [25]: > 1250 µM
TGI [26]: > 1250 µM
TGI [27]: > 1250 µM
TGI [28]: > 1250 µM
TGI [29]: > 1250 µM
TGI [30]: > 1250 µM
TGI [31]: > 1250 µM
TGI [32]: > 1250 µM
TGI [33]: > 1250 µM
TGI [34]: > 1250 µM
TGI [35]: > 1250 µM
TGI [36]: > 1250 µM
TGI [37]: > 1250 µM
TGI [38]: > 1250 µM
TGI [39]: > 1250 µM
TGI [40]: > 1250 µM
TGI [41]: > 1250 µM
TGI [42]: > 1250 µM
TGI [43]: > 1250 µM
TGI [44]: > 1250 µM
TGI [45]: > 1250 µM
TGI [46]: > 1250 µM
TGI [47]: > 1250 µM
TGI [48]: > 1250 µM
TGI [49]: > 1250 µM
TGI [50]: > 1250 µM
TGI [51]: > 1250 µM
TGI [52]: > 1250 µM

COc1cc2c(c(OC)c1OC)-c1ccc(SC)c(=O)cc1[C@@H](NCc1ccccc1[N+](=O)[O-])CC2
TGI [1]: 0.21 µM
TGI [2]: 0.0298 µM
TGI [3]: 0.0237 µM
TGI [53]: 0.0243 µM
TGI [4]: > 100 µM
TGI [5]: 0.117 µM
TGI [6]: 19 µM
TGI [7]: 0.0826 µM
GI50 [9]: > 100 µM
TGI [9]: > 100 µM
TGI [10]: 0.0407 µM
TGI [13]: > 100 µM
TGI [14]: 0.0112 µM
TGI [15]: > 100 µM
TGI [16]: > 100 µM
TGI [17]: > 100 µM
TGI [18]: 18.2 µM
TGI [19]: 15.8 µM
TGI [20]: 0.0278 µM
TGI [21]: 0.0419 µM
TGI [22]: 0.0146 µM
TGI [24]: 0.0199 µM
TGI [25]: > 100 µM
TGI [26]: > 100 µM
TGI [27]: 0.0499 µM
TGI [28]: 0.0556 µM
TGI [29]: > 100 µM
TGI [30]: 0.0558 µM
TGI [31]: > 100 µM
TGI [32]: 47.2 µM
TGI [33]: > 100 µM
TGI [34]: > 100 µM
TGI [35]: 38.5 µM
TGI [54]: > 100 µM
TGI [36]: 23.1 µM
TGI [55]: 40.6 µM
GI50 [37]: > 100 µM
TGI [37]: > 100 µM
TGI [38]: > 100 µM
GI50 [39]: 1.53 µM
GI50 [40]: 0.171 µM
TGI [40]: > 100 µM
TGI [56]: 0.0293 µM
TGI [57]: 0.0283 µM
TGI [45]: 41.5 µM
TGI [46]: > 100 µM
TGI [47]: > 100 µM
TGI [49]: > 100 µM
TGI [50]: > 100 µM
TGI [52]: 0.0487 µM

O=C(CC(=O)n1nc(-c2ccccc2)c(N=Nc2ccccc2Cl)c1-c1ccccc1)Nc1ccc(Cl)cc1
TGI [1]: > 100 µM
TGI [2]: > 100 µM
TGI [3]: > 100 µM
TGI [53]: > 56.6 µM
TGI [4]: > 100 µM
TGI [5]: > 100 µM
TGI [6]: > 59.7 µM
TGI [7]: > 78.2 µM
TGI [8]: > 100 µM
TGI [9]: > 100 µM
TGI [10]: > 100 µM
TGI [11]: > 100 µM
TGI [12]: > 100 µM
TGI [13]: > 100 µM
TGI [14]: > 100 µM
TGI [15]: > 100 µM
TGI [16]: > 74 µM
TGI [17]: > 65.2 µM
TGI [18]: > 100 µM
TGI [19]: > 100 µM
TGI [20]: > 55.8 µM
TGI [21]: > 55.6 µM
TGI [22]: > 89.5 µM
TGI [23]: > 60.5 µM
TGI [24]: > 100 µM
TGI [25]: > 100 µM
TGI [26]: > 100 µM
TGI [27]: > 100 µM
TGI [28]: > 64 µM
TGI [29]: > 100 µM
TGI [30]: > 100 µM
TGI [31]: > 100 µM
TGI [32]: > 100 µM
TGI [33]: > 100 µM
TGI [34]: > 100 µM
TGI [35]: > 68.5 µM
TGI [54]: > 100 µM
TGI [36]: > 66.1 µM
TGI [37]: > 100 µM
TGI [38]: > 100 µM
TGI [39]: > 100 µM
TGI [40]: > 85.8 µM
TGI [41]: > 100 µM
TGI [56]: > 100 µM
TGI [42]: > 100 µM
TGI [57]: > 100 µM
TGI [43]: > 100 µM
TGI [44]: > 100 µM
TGI [45]: > 83.4 µM
TGI [46]: > 79.8 µM
TGI [47]: > 100 µM
TGI [48]: > 100 µM
TGI [58]: > 100 µM
TGI [49]: > 100 µM
TGI [50]: 45.7 µM
TGI [51]: > 100 µM
TGI [52]: > 59.9 µM

[N-]=[N+]=Nc1cc(=O)n(-c2ccccc2)c2ccccc12
TGI [1]: > 100 µM
TGI [2]: > 100 µM
TGI [3]: > 100 µM
TGI [53]: > 100 µM
TGI [4]: > 100 µM
TGI [5]: > 100 µM
TGI [6]: > 100 µM
TGI [7]: > 100 µM
TGI [8]: > 100 µM
TGI [9]: > 100 µM
TGI [11]: > 100 µM
TGI [12]: > 100 µM
TGI [13]: > 100 µM
TGI [15]: > 100 µM
TGI [16]: > 100 µM
TGI [17]: > 100 µM
TGI [18]: > 100 µM
TGI [19]: > 100 µM
TGI [20]: > 100 µM
TGI [21]: > 100 µM
TGI [22]: > 100 µM
TGI [23]: > 100 µM
TGI [24]: > 100 µM
TGI [25]: > 100 µM
TGI [26]: > 100 µM
TGI [27]: > 100 µM
TGI [28]: > 100 µM
TGI [29]: > 100 µM
TGI [30]: > 100 µM
TGI [31]: > 100 µM
TGI [32]: > 100 µM
TGI [33]: > 100 µM
TGI [35]: > 100 µM
TGI [36]: > 100 µM
TGI [37]: > 100 µM
TGI [38]: > 100 µM
TGI [39]: > 100 µM
TGI [40]: > 100 µM
TGI [41]: > 100 µM
TGI [42]: > 100 µM
TGI [43]: > 100 µM
TGI [44]: > 100 µM
TGI [45]: > 100 µM
TGI [46]: > 100 µM
TGI [58]: > 100 µM
TGI [49]: > 100 µM
TGI [50]: > 100 µM
TGI [51]: > 100 µM
TGI [52]: > 100 µM

Cc1cn(C2CC(OC3CCCCO3)C(CO)O2)c(=O)[nH]c1=O (stereo unspecified)
TGI [1]: > 100 µM
TGI [2]: > 100 µM
TGI [3]: > 100 µM
TGI [4]: > 100 µM
TGI [5]: > 100 µM
TGI [6]: > 100 µM
TGI [7]: > 100 µM
TGI [8]: > 100 µM
TGI [9]: > 100 µM
TGI [10]: > 100 µM
TGI [11]: > 100 µM
TGI [12]: > 100 µM
TGI [13]: > 100 µM
TGI [14]: > 100 µM
TGI [15]: > 100 µM
TGI [16]: > 100 µM
TGI [17]: > 100 µM
TGI [19]: > 100 µM
TGI [20]: > 100 µM
TGI [21]: > 100 µM
TGI [22]: > 100 µM
TGI [23]: > 100 µM
TGI [24]: > 100 µM
TGI [25]: > 100 µM
TGI [26]: > 100 µM
TGI [27]: > 100 µM
TGI [28]: > 100 µM
TGI [29]: > 100 µM
TGI [30]: > 100 µM
TGI [32]: > 100 µM
TGI [33]: > 100 µM
TGI [34]: > 100 µM
TGI [35]: > 100 µM
TGI [54]: > 100 µM
TGI [36]: > 100 µM
TGI [55]: > 100 µM
TGI [37]: > 100 µM
TGI [38]: > 100 µM
TGI [40]: > 100 µM
TGI [41]: > 100 µM
TGI [56]: > 100 µM
TGI [42]: > 100 µM
TGI [57]: > 100 µM
TGI [43]: > 100 µM
TGI [44]: > 100 µM
TGI [45]: > 100 µM
TGI [46]: > 100 µM
TGI [47]: > 100 µM
TGI [48]: > 100 µM
TGI [49]: > 100 µM
TGI [50]: > 100 µM
TGI [51]: > 100 µM
TGI [52]: > 100 µM
